Results reported in patent US20250129102A1, “CRYSTAL FORM OF PYRIMIDINE HETEROCYCLIC COMPOUND AND PREPARATION METHOD THEREFOR” (D3 Bio (Wuxi) Co., Ltd., priority 2021, published 2025).

Assays:
[1] = Metabolic stability in hepatocytes, cynomolgus monkeys; assay type: in vitro ADME; conditions: cynomolgus monkey, cryopreserved hepatocytes
Experimental: Metabolic stabilities of assay compound in hepatocytes of CD-1 mice, SD rats, beagle dogs, cynomolgus monkeys, and human were assayed, respectively.
Several 96-well sample precipitation plates were prepared and named T0, T15, T30, T60, T90, T120, T0-MC, T120-MC and blank substrates, respectively. The recovery medium and incubation medium were taken out in advance and placed in a 37° C. water bath for pre-heating. Cryopreserved hepatocytes were removed from the liquid nitrogen tank and immediately immersed in a 37° C. water bath (approximately 90 seconds). After the cryopreserved hepatocytes had thawed and loosened, they were poured into a centrifuge tube containing 40 mL of recovery medium, and the tube was gently inverted to allow the cells to be resuspended in the recovery medium. The cells were centrifuged at 100×g at room temperature for 5 min, and the supernatant was removed. The hepatocytes were resuspended in an appropriate volume of incubation medium, and the cell viability was calculated by Trypan Blue staining method. 198 μL of hepatocyte suspension (0.51×10^6 cells/mL) was added to the preheated incubation plate. For the culture medium control group, 198 μL of hepatocyte-free incubation medium was added to T0-MC and T120-MC incubation plate. All incubation plates were pre-incubated in a 37° C. incubator for 10 minutes. Then 2 μL of working solutions of the assay sample and the control compound were added, respectively, and the mixture was mixed well. The incubation plate was immediately put into the shaker in the incubator, and the reaction was initiated while starting the timer. For each time point of each compound, 2 duplicate samples were prepared. The incubation conditions were 37° C., saturated humidity, and 5% CO2. […] All samples were mixed well and analyzed by LC/MS/MS.

[2] = Stability in plasma, CD-1 mice; assay type: in vitro ADME; conditions: CD-1 mice plasma, 2 μM, 37° C.
Experimental: (§1) Stabilities of the assay compound in plasma of CD-1 mice and human were assayed, respectively. Cryopreserved plasma was thawed for 10 to 20 min. After the plasma was completely thawed, it was placed in a centrifuge and centrifuged at 3220×g for 5 min to remove any suspended matter and sediment in the plasma. 96-well incubation plates were prepared and named T0, T10, T30, T60, T120, respectively. 98 μL of blank plasmas of mouse, rat, canine, monkey and human were added to the corresponding incubation plates, then 2 μL of working solutions of the compound or the control compound were added to the corresponding plates in duplicate. All samples were incubated in a 37° C. water bath. The final incubation concentrations of the compound and the control compounds bisacodyl, enalapril maleate, procaine and probanthine were 2 μM, and the final organic phase content was 2.0%. At the end of incubation for each time point, the corresponding incubation plate was removed and 400 μL of a solution of 200 ng/mL of tolbutamide and labetalol in acetonitrile was added to each corresponding sample well to precipitate the protein. All sample plates were sealed and shaken well, and then centrifuged at 3220×g for 20 minutes. 50 μL of supernatant was taken out and diluted in 100 μL of ultrapure water. All samples were mixed well and then analyzed by LC/MS/MS.

[3] = Stability in plasma, human; assay type: in vitro ADME; conditions: 2 μM, 37° C.
Experimental: as §1

[4] = test system: human pancreatic cancer Mia PaCa-2 cells; assay: Pharmacodynamics in vivo, subcutaneously transplanted Mia PaCa-2 tumor model; design: species or system Balb/c Nude mice; conditions: day 22 of administration
Experimental: Assay on pharmacodynamics in vivo in a subcutaneously transplanted tumor model of human pancreatic cancer Mia PaCa-2 cells in Balb/c Nude mice
Cell culture: Human pancreatic cancer Mia PaCa-2 cells (ATCC-CRL-1420) were cultured in monolayer in vitro in DMEM medium with 10% fetal calf serum and 2.5% horse serum in a 37° C., 5% carbon dioxide incubator. Cells were passaged by routine digestion with trypsin-EDTA twice a week. When the cell saturation reached 80%-90% and the cell number met the requirement, the cells were harvested, counted, and resuspended in an appropriate amount of PBS. Matrigel was added in a ratio of 1:1 to obtain a cell suspension with a cell density of 25×10^6 cells/mL.
Cell inoculation: 0.2 mL (5×10^6 cells/mouse) of Mia PaCa-2 cells (plus Matrigel, 1:1 by volume) were subcutaneously inoculated into the right back of each mouse. When the average tumor volume reached 190 mm^3, mice were randomized into groups based on tumor volume and administration was initiated according to the protocol in Table 15.
Tumor diameter was measured with vernier caliper twice a week. The calculation formula of tumor volume was: V=0.5a×b^2, where a and b represent the long and short diameters of the tumor, respectively.
The anti-tumor efficacy of compound was evaluated by TGI (%) or relative tumor proliferation rate T/C (%). Relative tumor proliferation rate T/C (%)=TRTV/CRTV×100% (TRTV: RTV in a treatment group; CRTV: RTV in a negative control group). The relative tumor volume (RTV) was calculated according to results of tumor measurement, and the calculation formula was RTV=Vt/V0, where V0 was average tumor volume measured at the time of administration by group (i.e., D0), and Vt was average tumor volume at the time of a certain measurement. For TRTV and CRTV, data on the same day were used.
TGI (%) reflected tumor growth inhibition rate. TGI(%)=[(1−(average tumor volume at the end of administration of a treatment group−average tumor volume at the beginning of administration of the treatment group))/(average tumor volume at the end of treatment of a vehicle control group−average tumor volume at the beginning of treatment of the vehicle control group)]×100%.

C=C(F)C(=O)N1CCN(c2nc(OC[C@@]34CCCN3C[C@H](F)C4)nc3c2CO[C@H](c2c(F)c(N)cc(C)c2C(F)(F)F)C3)C[C@@H]1CC#N [Compound of formula (I)]
half-life at 1 μM [1]: 27 min | hepatocyte CLint at 1 μM ([1]; read-out: CLint(hep)): 51.3 µL/min/1e6 cells | CLint scaled at 1 μM ([1]; read-out: CLint(liver)): 185 mL/min/kg | Detection of assay compound content within 120 min [2]: 94% | Detection of assay compound content within 120 min [3]: 93% | Average tumor volume ([4]; 10 mg/kg PO QD): 249.87 mm^3 | T/C ([4]; 10 mg/kg PO QD): 12.39% | TGI ([4]; 10 mg/kg PO QD): 93.06% | Average tumor volume ([4]; 30 mg/kg PO QD): 124.14 mm^3 | T/C ([4]; 30 mg/kg PO QD): 6.16% | TGI ([4]; 30 mg/kg PO QD): 99.64%
